Laboratory results: the supplement of paper PMC10307832

Experiments:
Test in all cases: relative viability (nuclei count vs DMSO), 5 days (fraction); higher = more cells survive
GW-2580 + Palbociclib = compound: COC1=CC=C(C=C1)COC2=C(C=C(C=C2)CC3=CN=C(N=C3N)N)OC [GW-2580] + CC(=O)c1c(C)c2cnc(Nc3ccc(N4CCNCC4)cn3)nc2n(C2CCCC2)c1=O [Palbociclib] (partner 0.5 µM)
Outline: (§1)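 Relative viability is defined as nuclei in treated wells over nuclei in vehicle wells. Duplicate plates were run and medians reported. Lung cancer cell lines in 1536-well plates were dosed by pin tool one day after seeding, with one drug or with a fixed anchor-drug dose plus five library-drug doses (not always all listed) in √10 steps, and nuclei were counted after 5 days.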

Fedratinib + Foretinib = compound: Cc1cnc(Nc2ccc(OCCN3CCCC3)cc2)nc1Nc1cccc(S(=O)(=O)NC(C)(C)C)c1 [Fedratinib] + COc1cc2c(Oc3ccc(NC(=O)C4(C(=O)Nc5ccc(F)cc5)CC4)cc3F)ccnc2cc1OCCCN1CCOCC1 [Foretinib] (partner 0.25 µM)
Outline: as §1

Fedratinib + Palbociclib = compound: Cc1cnc(Nc2ccc(OCCN3CCCC3)cc2)nc1Nc1cccc(S(=O)(=O)NC(C)(C)C)c1 [Fedratinib] + CC(=O)c1c(C)c2cnc(Nc3ccc(N4CCNCC4)cn3)nc2n(C2CCCC2)c1=O [Palbociclib] (partner 0.5 µM)
Outline: as §1

Fedratinib + Pictilisib = compound: Cc1cnc(Nc2ccc(OCCN3CCCC3)cc2)nc1Nc1cccc(S(=O)(=O)NC(C)(C)C)c1 [Fedratinib] + CS(=O)(=O)N1CCN(Cc2cc3nc(-c4cccc5[nH]ncc45)nc(N4CCOCC4)c3s2)CC1 [Pictilisib] (partner 1 µM)
Outline: as §1

GW-2580 + Dasatinib = compound: COC1=CC=C(C=C1)COC2=C(C=C(C=C2)CC3=CN=C(N=C3N)N)OC [GW-2580] + Cc1nc(Nc2ncc(C(=O)Nc3c(C)cccc3Cl)s2)cc(N2CCN(CCO)CC2)n1 [Dasatinib] (partner 0.075 µM)
Outline: as §1

Cell Line	relative viability (GW-2580 + Palbociclib; first compound 0.08 µM)	relative viability (GW-2580 + Palbociclib; first compound 0.8 µM)	relative viability (GW-2580 + Palbociclib; first compound 2.53 µM)	relative viability (GW-2580 + Palbociclib; first compound 8 µM)	relative viability (Fedratinib + Foretinib; first compound 0.1 µM)	relative viability (Fedratinib + Foretinib; first compound 0.3162 µM)	relative viability (Fedratinib + Foretinib; first compound 1 µM)	relative viability (Fedratinib + Palbociclib; first compound 0.1 µM)	relative viability (Fedratinib + Palbociclib; first compound 0.3162 µM)	relative viability (Fedratinib + Palbociclib; first compound 1 µM)	relative viability (Fedratinib + Pictilisib; first compound 0.1 µM)	relative viability (Fedratinib + Pictilisib; first compound 0.3162 µM)	relative viability (Fedratinib + Pictilisib; first compound 1 µM)	relative viability (GW-2580 + Dasatinib; first compound 0.08 µM)	relative viability (GW-2580 + Dasatinib; first compound 0.8 µM)	relative viability (GW-2580 + Dasatinib; first compound 2.53 µM)	relative viability (GW-2580 + Dasatinib; first compound 8 µM)
NCI-H1975	0.738	0.944	0.524	0.586	1.09	0.947	0.746	0.644	0.304	0.413	0.301	0.315	0.15	0.406	0.388	0.379	0.315
NCI-H1993	0.744	0.748	0.563	0.647	0.763	0.818	0.808	0.654	0.63	0.906	0.779	0.872	0.771	0.611	0.606	0.524	0.568
RERF-LC-KJ	1.13	1.24	0.988	1.07	0.883	0.904	0.864	1.01	1.05	1.02	0.431	0.545	0.462	0.896	0.893	0.797	0.71
NCI-H23	0.529	0.549	0.469	0.545	0.945	0.767	0.822	0.555	0.497	0.4	0.428	0.619	0.156	0.847	0.921	0.757	0.792
HCC-366	0.388	0.475	0.488	0.405	0.918	0.922	0.911	0.603	0.355	0.315	0.136	0.0976	0.19	0.711	0.759	0.603	0.563
EMC-BAC-2	0.536	0.545		0.493	1	1.01	1	0.533	0.503	0.489	0.499	0.575	0.538	0.317	0.308	0.264	0.316
NCI-H2405	0.512	0.546	0.463	0.49	1.03	1.02	1.01	0.486	0.536	0.463	0.338	0.443	0.34	0.203	0.205	0.222	0.213
NCI-H358	0.135	0.147	0.139	0.15	0.482	0.63	0.541	0.131	0.0975	0.107	0.319	0.395	0.26	0.173	0.199	0.159	0.115
NCI-H1944	0.33	0.387	0.29	0.255	0.837	0.962	0.824	0.305	0.358	0.318	0.333	0.344	0.302	0.207	0.224	0.203	0.212
EPLC-272H	0.317	0.337		0.313	0.558	0.684	0.472	0.318	0.339	0.365	0.257	0.35	0.0901	0.353	0.385		0.283
NCI-H1915	0.608	0.735	0.597	0.492	1.09	1.08	1.05	0.505	0.498	0.422	0.927	0.9	0.405	0.356	0.295	0.272	0.273
NCI-H322M	0.5	0.453	0.476	0.29	0.946	0.95	0.596	0.487	0.473	0.454	0.5	0.503	0.406	0.247	0.24	0.263	0.253
NCI-H2228	0.793	1.03	0.822	0.843	0.847	0.825	0.743	0.648	0.53	0.523	0.363	0.432	0.127	0.557	0.551	0.441	0.488
NCI-H647	0.384	0.398	0.41	0.317	1.16	1.23	1.16	0.346	0.362	0.364	0.377	0.477	0.309	0.189	0.16	0.11	0.224
SK-MES-1	0.36	0.322	0.281	0.318	0.865	1.07	0.795	0.339	0.32	0.271	0.314	0.38	0.283	0.444	0.477	0.304	0.292
NCI-H2170	0.408	0.451	0.386	0.373	1.02	0.996	1.02	0.379	0.363	0.344	0.266	0.329	0.221	0.752	0.769	0.587	0.672

Cell Line	relative viability (GW-2580 + Palbociclib; first compound 0.08 µM)	relative viability (GW-2580 + Palbociclib; first compound 0.8 µM)	relative viability (GW-2580 + Palbociclib; first compound 2.53 µM)	relative viability (GW-2580 + Palbociclib; first compound 8 µM)	relative viability (Fedratinib + Foretinib; first compound 0.1 µM)	relative viability (Fedratinib + Foretinib; first compound 0.3162 µM)	relative viability (Fedratinib + Foretinib; first compound 1 µM)	relative viability (Fedratinib + Palbociclib; first compound 0.1 µM)	relative viability (Fedratinib + Palbociclib; first compound 0.3162 µM)	relative viability (Fedratinib + Palbociclib; first compound 1 µM)	relative viability (Fedratinib + Pictilisib; first compound 0.1 µM)	relative viability (Fedratinib + Pictilisib; first compound 0.3162 µM)	relative viability (Fedratinib + Pictilisib; first compound 1 µM)	relative viability (GW-2580 + Dasatinib; first compound 0.08 µM)	relative viability (GW-2580 + Dasatinib; first compound 0.8 µM)	relative viability (GW-2580 + Dasatinib; first compound 2.53 µM)	relative viability (GW-2580 + Dasatinib; first compound 8 µM)
NCI-H2085	0.507	0.467	0.462	0.438	0.883	0.861	0.909	0.447	0.483	0.423	0.361	0.442	0.375	0.277	0.217	0.25	0.258
SW 1573	0.439	0.38	0.397	0.408	0.906	0.947	0.807	0.41	0.373	0.302	0.444	0.391	0.463	0.464	0.45	0.452	0.407
NCI-H727	0.576	0.625	0.606	0.54	0.835	0.808	0.779	0.483	0.652	0.624	0.378	0.317	0.164	0.414	0.409	0.44	0.299
NCI-H441	0.228	0.212	0.206	0.2	1.12	0.907	0.868	0.195	0.176	0.204	0.441	0.42	0.239	0.679	0.764	0.582	0.534
LOU-NH91	0.516	0.514	0.505	0.54	0.917	0.956	0.875	0.573	0.544	0.543	0.432	0.53	0.516	0.555	0.719	0.517	0.553
NCI-H3122	0.207	0.199	0.189	0.195	0.956	0.9	0.941	0.199	0.184	0.159	0.621	0.551	0.152	0.947	1.01	0.655	0.812
NCI-H460	0.147	0.339	0.146	0.248	0.793	1.05	0.997	0.163	0.142	0.06	0.354	0.316	0.295	0.574	0.722	0.452	0.512
NCI-H650	0.314	0.373	0.28	0.317	0.943	1.01	1.01	0.285	0.345	0.324		0.701	0.727	0.468	0.538	0.396	0.424
NCI-H661	0.414	0.434	0.388	0.326	0.959	1.1	1	0.397	0.401	0.359	0.404	0.355	0.329	0.983	0.943	0.689	0.685
NCI-H1793	0.412	0.345	0.28	0.273	0.506	0.765	0.45	0.316	0.319	0.313	0.34	0.305	0.306	0.415	0.451	0.355	0.399
NCI-H1734	0.364	0.432	0.37	0.311	0.665	0.921	0.786	0.415	0.344	0.334	0.443	0.479	0.142	0.459	0.497	0.456	0.447
LXF-289	0.616	0.64	0.599	0.602	0.963	0.958	0.981	0.611	0.559	0.558	0.811	0.747	0.694	0.208	0.267	0.177	0.217
H3255	0.308	0.3	0.317	0.279	0.82	0.766	0.877	0.277	0.303	0.318	0.42	0.48	0.432	0.287	0.436	0.345	0.281
201T	0.388	0.4	0.375	0.351	1.1	1.08	0.895	0.362	0.342	0.33	0.679	0.705	0.601	0.637	0.544	0.509	0.532
NCI-H2126	0.352	0.365	0.335	0.356	1.07	1.06	1.08	0.319	0.339	0.369	0.489	0.514	0.391	0.599	0.736	0.627	0.522
